Columns and labels:
Assay type in all cases: cell-based
[1] = tested on: parental and C20orf196 KO SUM149 tumouroids; experiment: Tumouroid assay, parental vs C20orf196 KO SUM149; details: in C20orf196 KO cells when compared with olaparib
Experimental: Cells were seeded into a hydrogel containing 10% rat tail collagen (OcellO) in 384-well high content imaging microplates at varying densities to compensate for differential growth characteristics (Table 2).
24 hours after seeding, test compounds and olaparib (Selleckchem) were added in an eight-point dose range with a one in three serial dilution (maximum concentration 12 μM for all compounds, except 30 μM compound A for REV7 KO cell experiments). Dimethyl sulfoxide (DMSO) and 1 μM staurosporine (Med Chem Express) treatments were included as negative and positive controls, respectively. All treatments were carried out in quadruplicate.
After seven or fourteen days of treatment for 20orf196 KO and REV7 KO experiments respectively, cells were fixed with 5× Fix & Stain solution (OcellO) for 16 hours at 4° C. to stain both the nuclei using Hoechst 33258 and the actin cytoskeleton using Rhodamine-Phalloidin. Cells were washed four times with phosphate-buffered saline (PBS), and plates were imaged and analysed using OcellO's three-dimensional image analysis software (Ominer). For each well, two channels of 16-bit image stacks were collected using an automated microscope system: Molecular Devices ImageXpress Micro XLS, equipped with a 4× magnification/0.2NA PlanApo objective. For each image slice (n=47), pixel size was 0.324 μm and step size in z-direction was 50 μm.
Parental or C20orf196 KO SUM149 cells were seeded into a collagen-containing hydrogel in 384-well plates and incubated overnight. The resulting tumouroids were treated with a serial dilution of Polθ inhibitor or olaparib for seven days, fixed, and stained to visualise DNA and F-actin. Plates were imaged, and tumouroid size was measured using OcellO's three-dimensional image analysis software.
(§1) Parental or C20orf196 KO SUM149 cells were seeded into a collagen-containing hydrogel in 384-well plates and incubated overnight. The resulting tumouroids were treated with a serial dilution of Polθ inhibitor or olaparib for seven days, fixed, and stained to visualise DNA and F-actin. Plates were imaged, and the number of nuclei per tumouroid was counted using OcellO's three-dimensional image analysis software.
as §1, with “with” for “with a serial dilution of”, “inhibitor, olaparib” for “inhibitor”, “control compound (at the concentrations indicated)” for “olaparib”, “fraction” for “number”, “without an associated actin cytoskeleton” for “per tumouroid”, “calculated” for “counted”

[2] = tested on: RPE1 TP53-/-BRCA1-/-cells; experiment: siRNA screen for Compound A sensitivity in BRCA1 defective RPE1; details: for Drug Effect (DE) Z-score: BRCA1 defective RPE1
Excerpt: An siRNA library was purchased from Dharmacon. Each well contained a SMART pool of four distinct siRNA species targeting different sequences of the target transcript, as well as individual siRNA targeting components of the Shieldin complex. Each plate was supplemented with negative siCONTROL (12 wells; Dharmacon) and positive control (four wells, siPLK1, Dharmacon). RNAi screening conditions were optimized and raw CellTitre-Glo (Promega) luminescent viability readings were generated as previously described (Lord et al DNA Repair (2008) 7, 2010-2019). Compound A or vehicle (DMSO) was added 24 h after transfection at 5 μM (CAL51) or 10 μM (RPE TP53-/-BRCA1-defective) concentration in media and cells were exposed for 5 days. Statistical analysis of the siRNA screen was performed as described elsewhere (Lord et al DNA Repair (2008) 7, 2010-2019). In brief, luminescence values from CellTitre-Glo assays in Compound A and DMSO exposed cells were log2 transformed and then normalized to plate median (PM) effects. Drug Effect (DE) scores were calculated from PM normalized data using the equation: DE=(log2 PM normalized signal of siRNA in the presence of Compound A)—(log2 PM normalized signal of siRNA in the absence of Compound A). DE values were then Z-score standardized according to screen median and median absolute deviation values.
To discover genes that are synthetic lethal with Polθ inhibitor in cells lacking DSBR through homologous recombination, an siRNA screen using 1418 siRNAs was performed using BRCA1 defective RPE1 TP53-/-BRCA1-/-cells. The screen was performed and analysed as described in FIG. 8 for the CAL51 screen. REV7 and SHLD2 (FAM35A) were two of the top hits (FIG. 8(a)), confirming the link between SHLD component defects and Polθ inhibitor sensitivity.

[3] = tested on: parental and SHLD2 KO MDA-MB-436 cells; experiment: Colony formation assay, MDA-MB-436; details: SHLD2 KO vs parental MDA-MB-436 cells, colony solubilization protocol
Experimental: (§2) 1 mL of cells were seeded per well in a 24-well plate in triplicate and incubated overnight at 37° C. Cells were treated with a seven-point dose response curve with a one-in-three serial dilution of compound for the timepoints listed in Table 5. For MDA-MB-436 cells media was replenished every five days.
(§3) Cells were fixed with 70% ethanol for 20 minutes at room temperature with shaking. Cells were then stained with 0.04% Crystal Violet (Sigma Aldrich) for 20 minutes at room temperature with shaking. Cells were washed 6 times with water and air-dried overnight.
Plates were imaged using a Gelcount (Oxford Optronix), and colonies were counted using parameters optimized for each cell line. […] Colonies were solubilized using 10% acetic acid (VWR) for 30 minutes, absorbance at 595 nm was read using the Clariostar plate reader (BMG Labtech), and blank correction was applied. Relative Survival was calculated by normalization of compound treated wells to DMSO treated wells.
The effect of a DNA polymerase theta (Polθ) inhibitor (Compound A) and the PARP inhibitor olaparib on the survival of parental and SHLD2 deleted (SHLD2 KO) MDA-MB-436 cells was investigated by colony formation assay. Briefly, each population was seeded at low density, incubated with different concentrations of the compound and the relative survival normalized to untreated cells was measured with the colony solubilization protocol.

[4] = tested on: parental and REV7 KO 22Rv1 cells; experiment: Colony formation assay, 22Rv1; details: REV7 KO vs REV7 wild type parental 22Rv1 cells, 2 weeks
Experimental: as §2, §3
Plates were imaged using a Gelcount (Oxford Optronix), and colonies were counted using parameters optimized for each cell line. 22Rv1 viability curves were generated from the colony counts alone. MDA-MB-436 and […] viability curves were generated from solubilized colonies. Colonies were solubilized using 10% acetic acid (VWR) for 30 minutes, absorbance at 595 nm was read using the Clariostar plate reader (BMG Labtech), and blank correction was applied. Relative Survival was calculated by normalization of compound treated wells to DMSO treated wells.
The effect of a DNA polymerase theta (Polθ) inhibitor (Compound A) or the PARP inhibitor olaparib on the survival of parental (REV7 wild type) or REV7 deleted (REV7 KO) 22Rv1 cells was investigated in colony formation assays (CFA—see protocol above). […]

Cc1cccc(N(C)C(=O)[C@@H]2[C@H](O)CCN2c2nc(C)cc(C(F)(F)F)c2C#N)c1 [Compound A, (2S,3R)-1-(3-cyano-6-methyl-4-(trifluoromethyl)pyridin-2-yl)-3-hydroxy-N-methyl-N-(m-tolyl)pyrrolidine-2-carboxamide]
cell death [1]: significantly more cell death | reduction in the number of nuclei per tumoroid [1]: greater reduction in the number of nuclei per tumoroid | reduction in tumoroid size [1]: greater reduction in tumoroid size | sensitivity caused by siRNAs targeting FAM35A or REV7 (DE<−2) ([2]; BRCA1 defective RPE1 cells, 10 μM, 5 days): caused sensitivity | Drug Effect (DE) Z-score ([2]; non-targeting siRNA Allstar control): 1.3 | Drug Effect (DE) Z-score ([2]; non-targeting siRNA siCON1): −0.8 | Drug Effect (DE) Z-score ([2]; non-targeting siRNA siCON2): −0.6 | sensitivity by relative survival [3]: significantly more sensitive | sensitivity by relative survival (colonies) [4]: significantly more sensitive
